Data taken from patent US6046228A, “Anti-viral pharmaceutical compositions containing saturated 1,2-dithiaheterocyclic compounds and uses thereof” (priority 1999, dated 2000).
pIC50: −log10 of the molar value.

Molecular target: T1, gp120-CD4 (UniProt P01730+P03375)
T1 construct: purchased
Assay: gp120-CD4 binding, antigen capture ELISA
Set-up: species or system HIV-1
Experimental: Binding of HIV-1RF to PBLs was measured by a p24-based assay (Rice, et al., Proc. Nat'l. Academy of Science USA 90: 9721-9724, (1993)). Briefly, 5×10^5 PBLs were incubated with a concentrated stock of virus for 30 min. at 37° C. in the absence or presence of various concentrations of 624151, the unbound virus was washed away, and the cell-associated virus was solubilized in 1% Triton X-100, 1% BSA and analyzed by the p24 antigen capture assay as previously described. The binding of gp120to CD4 was analyzed using an antigen capture ELISA. All steps of the assay were carried out according to the manufacturer's protocols.
^.dagger. Attachment of HIV1 to fresh human PBLs, binding of gp120 to
CD4, and the effects of compounds on HIV1 RT and protease were quantitate

In the case of `O=S1(=O)C[C@H](O)[C@H](O)CS1` (relative stereo) [NSC 624151, cis-1,1-dioxo[1,2]dithiane-4,5-diol], the “inhibition of gp120-CD4 interaction” value (in words) was “did not inhibit” and the pIC50 (read-out: gp120-CD4 ID50) was less than 4.00.
